Test results taken from patent publication US20160145247A1, “Aminomethyl-Biaryl Derivatives Complement Factor D inhibitors and uses thereof” (NOVARTIS AG, priority 2013, published 2016).

Biological target: T1, factor D (Homo sapiens, UniProt P00746)
T1 construct: made in house; host or cells: E. coli
Assay: factor D inhibition assay of Biological Example 2
Assay type: biochemical

T1 sequence (P00746 26-253): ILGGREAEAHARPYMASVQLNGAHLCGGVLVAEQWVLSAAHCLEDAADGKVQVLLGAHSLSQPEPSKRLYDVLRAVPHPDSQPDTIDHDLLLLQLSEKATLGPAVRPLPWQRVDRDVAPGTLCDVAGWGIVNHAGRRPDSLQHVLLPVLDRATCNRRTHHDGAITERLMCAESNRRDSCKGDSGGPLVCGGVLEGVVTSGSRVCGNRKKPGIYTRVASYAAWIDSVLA

| Structure (SMILES) | IC50 [nM] |
| --- | --- |
| NCc1cccc(-c2ccc3c(c2)C(Oc2ccccc2CC(=O)O)CCC3)c1 (single isomer, unassigned) [175 b) (tr = 9.5 min), (−) or (+)-(2-((7-(3-(aminomethyl)phenyl)-1,2,3,4-tetrahydronaphthalen-1-yl)oxy)phenyl)acetic acid] | 250 |
| NCc1cccc(-c2ccc3c(c2)C(Oc2ccccc2CC(=O)O)CCO3)c1 (single isomer, unassigned) [177 b) (tr = 8.8 min), (−) or (+)-2-(2-((6-(3-(aminomethyl)phenyl)chroman-4-yl)oxy)phenyl)acetic acid] | 180 |
| NC(CF)c1cccc(-c2cc(COc3ccccc3CC(=O)O)cc(CN3CCOCC3)c2)c1F (single isomer, unassigned) [Example 217-D, (+) or (−)-2-(2-((3′-(1-Amino-2-fluoroethyl)-2′-fluoro-5-(morpholinomethyl)-[1,1′-biphenyl]-3-yl)methoxy)phenyl)acetic acid] | 63 |
| NC(CF)c1cccc(-c2cccc(COc3ccccc3CC(=O)O)c2)c1 (single isomer, unassigned; (-)) [Example 190-B (−), (−)-2-(2-((3′-(1-amino-2-fluoroethyl)-[1, 1′-biphenyl]-3-yl)methoxy)phenyl)acetic acid] | 213 |
| NCc1cccc(-c2cccc(C(=O)Nc3ccccc3CC(N)=O)c2)c1 [Example 3-B, N-(2-(2-Amino-2-oxoethyl)phenyl)-3′-(aminomethyl)-[1,1′-biphenyl]-3-carboxamide] | 80200 |
| COC(=O)Cc1ccccc1NC(=O)c1cccc(-c2cc(CN)ccc2F)c1 [Example 4-A, Methyl 2-(2-(5′-(aminomethyl)-2′-fluoro-[1,1′-biphenyl]-3-ylcarboxamido)phenyl)acetate] | 33100 |
| NCc1ccc(F)c(-c2cccc(C(=O)Nc3ccccc3CC(=O)O)c2)c1 [Example 4-B, 2-(2-(5′-(Aminomethyl)-2′-fluoro-[1,1′-biphenyl]-3-ylcarboxamido)phenyl)acetic acid] | 4600 |
| CC(=O)Nc1cc(C(=O)Nc2ccccc2CC(=O)O)cc(-c2cccc(CN)c2)c1 [Example 5, 2-(2-(5-Acetamido-3′-(aminomethyl)-[1,1′-biphenyl]-3-ylcarboxamido)phenyl)acetic acid] | 45 |
| NCc1cc(F)cc(-c2cccc(C(=O)Nc3ccccc3CC(=O)O)c2)c1 [Example 6-B, 2-(2-(3′-(Aminomethyl)-5′-fluoro-[1,1′-biphenyl]-3-ylcarboxamido)phenyl)acetic acid] | 106 |
| CNC(=O)c1cc(C(=O)Nc2ccccc2CC(=O)O)cc(-c2cccc(CN)c2)c1 [Example 7-D, 2-(2-(3′-(Aminomethyl)-5-(methylcarbamoyl)-[1,1′-biphenyl]-3-ylcarboxamido)phenyl)acetic acid] | 244 |
| COC(=O)Cc1ccccc1NC(=O)c1ccc(OC)c(-c2cccc(CN)c2)c1 [Example 8-A, Methyl 2-(2-(3′-(aminomethyl)-6-methoxy-[1,1′-biphenyl]-3-ylcarboxamido)phenyl)acetate] | 5050 |
| COc1ccc(C(=O)Nc2ccccc2CC(=O)O)cc1-c1cccc(CN)c1 [Example 8-B, 2-(2-(3′-(Aminomethyl)-6-methoxy-[1,1′-biphenyl]-3-ylcarboxamido)phenyl)acetic acid] | 353 |
| COc1ccc(C(=O)Nc2ccccc2CC(=O)O)cc1-c1cc(F)cc(CN)c1 [Example 9] | 71 |
| N=C(N)c1cccc(-c2cccc(C(=O)Nc3ccccc3CC(=O)O)c2)c1 [Example 10-B, 2-(2-(3′-Carbamimidoyl-[1,1′-biphenyl]-3-ylcarboxamido)phenyl)acetic acid] | 396 |
| NCc1cc(F)cc(-c2cc(C(=O)Nc3ccccc3CC(=O)O)cc(-c3cnoc3)c2)c1 [Example 11-D, 2-(2-(3′-(Aminomethyl)-5′-fluoro-5-(isoxazol-4-yl)-[1,1′-biphenyl]-3-ylcarboxamido)phenyl)acetic acid] | 17 |
| NCc1cc(F)cc(-c2cc(Br)cc(C(=O)Nc3ccccc3CC(=O)O)c2)c1 [Example 12, 2-(2-(3′-(Aminomethyl)-5-bromo-5′-fluoro-[1,1′-biphenyl]-3-ylcarboxamido)phenyl)acetic acid] | 80 |
| NCc1cc(F)cc(-c2cc(Nc3ccccc3)cc(C(=O)Nc3ccccc3CC(=O)O)c2)c1 [Example 13-B, 2-(2-(3′-(Aminomethyl)-5′-fluoro-5-(phenylamino)-[1,1′-biphenyl]-3-ylcarboxamido)phenyl)acetic acid] | 9 |
| COc1ccc(C)c(Nc2cc(C(=O)Nc3ccccc3CC(=O)O)cc(-c3cc(F)cc(CN)c3)c2)c1 [Example 14-A] | 15 |
| NCc1cc(F)cc(-c2cc(NCc3ccncc3)cc(C(=O)Nc3ccccc3CC(=O)O)c2)c1 [Example 14-B] | 11 |

The remaining lines, values ahead:

| IC50 [nM] | Structure (SMILES) |
| --- | --- |
| 3 | NCc1cccc(-c2ccc3c(c2)C(Oc2ccccc2CC(=O)O)CCC3)c1 (single isomer, unassigned) [175 b) (tr = 4.1 min), (+) or (−)-(2-((7-(3-(aminomethyl)phenyl)-1,2,3,4-tetrahydronaphthalen-1-yl)oxy)phenyl)acetic acid] |
| 4 | NCc1cccc(-c2ccc3c(c2)C(Oc2ccccc2CC(=O)O)CCO3)c1 (single isomer, unassigned) [177 b) (tr = 3.2 min), (+) or (−)-2-(2-((6-(3-(aminomethyl)phenyl)chroman-4-yl)oxy)phenyl)acetic acid] |
| 6 | NCc1cccc(-c2cccc(COc3ccccc3C(NC(=O)C3CC3c3ccccc3)C(=O)O)c2)c1 (single isomer, unassigned) [Example 297-B, 2-(2-((3′-(aminomethyl)-[1,1′-biphenyl]-3-yl)methoxy)phenyl)-2-(2-phenylcyclopropanecarboxamido)acetic acid] |
| 9 | NC(CF)c1cccc(-c2cccc(COc3ccccc3CC(=O)O)c2)c1 (single isomer, unassigned; (+)) [Example 190-B (+), (+)-2-(2-((3′-(1-amino-2-fluoroethyl)-[1, 1′-biphenyl]-3-yl)methoxy)phenyl)acetic acid] |
| 6 | NC(CF)c1cccc(-c2cc(COc3ccccc3CC(=O)O)cc(OC[C@H]3CCCO3)c2)c1F (single isomer, unassigned; (+)) [Example 212-B] |
| 6 | NC(CF)c1cccc(-c2cc(COc3ccccc3CC(=O)O)cc(OC[C@H]3CCCO3)c2)c1F (single isomer, unassigned; (-)) [Example 212-A] |
| 3 | NCc1cccc(-c2cc(N)c(F)c(COc3ccccc3CC(=O)O)c2)c1 [154-C a), 2-(2-((5-Amino-3′-(aminomethyl)-4-fluoro-[1,1′-biphenyl]-3-yl)methoxy)phenyl)acetic acid] |
| 3 | Nc1cc(-c2cccc([C@H](N)CO)c2)cc(COc2ccccc2CC(=O)O)c1F [155 a), (S)-2-(2-((5-Amino-3′-(1-amino-2-hydroxyethyl)-4-fluoro-[1,1′-biphenyl]-3-yl)methoxy)phenyl)acetic acid] |
| 4 | N[C@H](CO)c1cccc(-c2cc(COc3ccccc3CC(=O)O)c(F)c(NCC3CCCO3)c2)c1 (stereo partly drawn) [155 b), 2-(2-((3′-((S)-1-Amino-2-hydroxyethyl)-4-fluoro-5-(((tetrahydrofuran-2-yl)methyl)amino)-[1,1′-biphenyl]-3-yl)methoxy)phenyl)acetic acid] |
| 5 | Cn1ccc(CNc2cc(C(=O)Nc3ccccc3CC(=O)O)cc(-c3cc(F)cc(CN)c3)c2)n1 [Example 14-C] |
